# Reference: ChEMBL document CHEMBL5537135, “Novel antimicrobial peptides modified with fluorinated sulfono-γ-AA having high stability and targeting multidrug-resistant bacteria infections” (Eur J Med Chem, 2024)
# Active and inactive are the calls of the source. The rule behind the calls is not given here. Numbered stars: 1 amine (or outer) side, 2 acyl side, 3 side chain; on linkers, the order of the positions; unused ones are H or OH. Square brackets hold non-standard residues; d marks the D form. Peptide text beside a SMILES is read from it. * marks the point of attachment. X3 = CC(C)C[C@@H](CN(CC(N)=O)S(=O)(=O)c1ccc(C(F)(F)F)cc1)N*; X2 = CC(C)C[C@H](N)CN(CC(=O)[*:2])[*:1]; X1 = O=S(=O)(c1ccc(C(F)(F)F)cc1)*
# How the values were obtained:
# Staphylococcus aureus [1] = assay: Antibiofilm activity against methicillin-resistant Staphylococcus aureus ATCC 33591 assessed as inhibition of biofilm formation at 4 to 8 microg/ml incubated for 24 hrs by crystal violet staining based analysis; format: functional; conditions: dose 4-8 µg/ml, at 4 to 8 µg/mL
# [2] = Stability in human serum assessed as half life measured for 5 hrs by RP-HPLC analysis; format: ADME, cell-free
# Pseudomonas aeruginosa [3] = assay: Bactericidal activity against Pseudomonas aeruginosa ATCC 27853 assessed as reduction in viable bacteria at 4 times MIC measured for 5 min by time-kill assay; format: functional, organism-based
# Staphylococcus aureus [4] = assay: Antimicrobial activity against Staphylococcus aureus ATCC 33591 at 1 times MIC incubated for 18 hrs in presence of LPS/LTA; format: functional, organism-based
# Staphylococcus aureus [5] = assay: Antimicrobial activity against methicillin-resistant Staphylococcus aureus 3 assessed as inhibition of visible bacterial growth incubated for 18 hrs by broth-dilution method; format: functional
# Staphylococcus aureus [6] = assay: Antibacterial activity against drug-susceptible Staphylococcus aureus ATCC 33591 assessed as reduction in microbial growth; format: functional
# Staphylococcus aureus [7] = assay: Additive antibacterial activity against methicillin-resistant Staphylococcus aureus S5 assessed as fractional inhibitory concentration index in presence of amoxicillin by checkerboard assay; format: functional
# Pseudomonas aeruginosa [8] = assay: Antibiofilm activity against Pseudomonas aeruginosa ATCC 27853 assessed as biofilm thickness at 2 times MIC90 incubated for 24 hrs by confocal laser scanning microscopic analysis; format: functional
# Cell membrane [9] = assay: Induction of outer membrane permeabilization in Pseudomonas aeruginosa ATCC 27853 assessed as increase in NPN uptake measured upto 20 mins by NPN-dye based fluorescence analysis
# Staphylococcus aureus [10] = assay: Antibiofilm activity against methicillin-resistant Staphylococcus aureus ATCC 33591 assessed as biofilm thickness at 8 microg/ml incubated for 24 hrs by confocal laser scanning microscopic analysis; format: functional; conditions: dose 8 µg/ml
# Pseudomonas aeruginosa [11] = assay: Synergistic antibacterial activity against Pseudomonas […] assessed as fractional inhibitory concentration index in presence of polymyxin B by checkerboard assay; format: functional
# Staphylococcus aureus [12] = assay: Antimicrobial activity against methicillin-resistant Staphylococcus aureus 1 assessed as inhibition of visible bacterial growth incubated for 18 hrs by broth-dilution method; format: functional
# Staphylococcus aureus [13] = assay: Antimicrobial activity against methicillin-resistant Staphylococcus aureus 5 assessed as inhibition of visible bacterial growth incubated for 18 hrs by broth-dilution method; format: functional
# Pseudomonas aeruginosa [14] = assay: Synergistic antibacterial activity against multidrug-resistant Pseudomonas aeruginosa 124 assessed as fractional inhibitory concentration index in presence of ceftazidime by checkerboard assay; format: functional
# Staphylococcus aureus [15] = assay: Antibiofilm activity against methicillin-resistant Staphylococcus aureus ATCC 33591 assessed as biofilm thickness at 2 times MIC90 incubated for 24 hrs by confocal laser scanning microscopic analysis; format: functional
# Pseudomonas aeruginosa [16] = assay: Antibiofilm activity against Pseudomonas aeruginosa ATCC 27853 assessed as inhibition of biofilm formation at 4 to 8 microg/ml incubated for 24 hrs by crystal violet staining based analysis; format: functional; conditions: dose 4-8 µg/ml, at 4 to 8 µg/mL
# Staphylococcus aureus [17] = assay: Antibiofilm activity against Staphylococcus aureus ATCC 25923 assessed as inhibition of biofilm formation at 4 to 8 microg/ml incubated for 24 hrs by crystal violet staining based analysis; format: functional; conditions: dose 4-8 µg/ml, at 4 to 8 µg/mL
# Pseudomonas aeruginosa [18] = assay: Antimicrobial activity against multidrug-resistant Pseudomonas aeruginosa 073 assessed as inhibition of visible bacterial growth incubated for 18 hrs by broth-dilution method; format: functional
# Staphylococcus aureus [19] = assay: Antimicrobial activity against methicillin-resistant Staphylococcus aureus 4 assessed as inhibition of visible bacterial growth incubated for 18 hrs by broth-dilution method; format: functional
# Cell membrane [20] = assay: Induction of cytoplasmic membrane depolarization in methicillin-resistant Staphylococcus aureus ATCC 33591 assessed as increase in fluorescence intensity at 2 times MIC by DiSC35 dye-based fluorescence assay
# Pseudomonas aeruginosa [21] = assay: Antibiofilm activity against Pseudomonas aeruginosa ATCC 27853 assessed as biofilm eradication at 4 times MIC incubated for 1 hr by crystal violet staining based assay; format: functional, organism-based
# Staphylococcus aureus [22] = assay: Antimicrobial activity against Staphylococcus aureus ATCC 25923 assessed as fold increase in MIC in presence of human serum; format: functional
# Pseudomonas aeruginosa [23] = assay: Synergistic antibacterial activity against multidrug-resistant Pseudomonas aeruginosa 124 assessed as fractional inhibitory concentration index in presence of polymyxin B by checkerboard assay; format: functional
# Staphylococcus aureus [24] = assay: Additive antibacterial activity against Staphylococcus aureus ATCC 33591 assessed as fractional inhibitory concentration index in presence of polymyxin B by checkerboard assay; format: functional
# [25] = Toxicity in mouse assessed as animal survival at 20 mg/kg, ip measured for 7 days; format: organism-based; conditions: in vivo, 168 h, time 7 day
# Cell membrane [26] = assay: Induction of membrane disruption in Staphylococcus aureus ATCC 33591 assessed as membrane blebbing at 2 to 4 times MIC incubated for 24 hrs by SEM analysis; format: cell membranes
# Staphylococcus aureus [27] = assay: Antibacterial activity against methicillin-resistant Staphylococcus aureus ATCC 33591 infected in full-thickness wound BALB/c mouse model assessed as wound healing at 0.25 to 1 mg/kg, ip administered for 1 to 48 hrs and measured after 10 days; format: functional, organism-based; conditions: dose 0.25-1 mg/kg, time 1-288 hrs
# [28] = Toxicity in mouse assessed as lung lesion at 20 mg/kg, ip measured for 30 to 60 mins by H and E staining based analysis; format: organism-based; conditions: in vivo, time 30-60 min
# Cell membrane [29] = assay: Induction of membrane disruption in Staphylococcus aureus ATCC 33591 assessed as membrane shrinkage at 2 to 4 times MIC incubated for 24 hrs by SEM analysis; format: cell membranes
# Cell membrane [30] = assay: Induction of membrane disruption in Staphylococcus aureus ATCC 33591 assessed as membrane lysis at 2 to 4 times MIC incubated for 24 hrs by SEM analysis; format: cell membranes
# Cell membrane [31] = assay: Induction of membrane depolarization in Pseudomonas aeruginosa ATCC 27853 assessed as increase in fluorescence intensity by DiSC35 dye-based fluorescence assay; format: cell membranes
# Cell membrane [32] = assay: Induction of membrane depolarization in methicillin-resistant Staphylococcus aureus ATCC 33591 assessed as increase in fluorescence intensity by DiSC35 dye-based fluorescence assay; format: cell membranes
# [33] = Toxicity in mouse at 40 mg/kg, sc measured for 5 to 1440 mins; format: organism-based; conditions: in vivo, time 5-1440 min
# Pseudomonas aeruginosa [34] = assay: Antibacterial activity against Pseudomonas aeruginosa ATCC 27853 infected in C57BL/6 mouse pneumonia model assessed as log reduction in bacterial load in lung at 5 mg/kg, ip administered for 1 to 48 hrs and measured after 3 days; format: functional; conditions: time 1-120 hrs
# Pseudomonas aeruginosa [35] = assay: Antibacterial activity against Pseudomonas aeruginosa ATCC 27853 infected in C57BL/6 mouse pneumonia model assessed as […] at 2.5 to 10 mg/kg, ip administered for 1 to 48 hrs and measured after 3 days by H and E staining based analysis; format: functional, organism-based; conditions: dose 2.5-10 mg/kg, time 1-120 hrs
# Pseudomonas aeruginosa [36] = assay: Antibacterial activity against Pseudomonas aeruginosa ATCC 27853 infected in C57BL/6 mouse pneumonia model assessed as reduction in bacterial load in lung at 10 mg/kg, ip administered for 1 to 48 hrs and measured after 3 days; format: functional, organism-based; conditions: time 1-120 hrs
# [37] = Toxicity in mouse assessed as kidney lesion at 20 mg/kg, ip measured for 30 to 60 mins by H and E staining based analysis; format: organism-based; conditions: in vivo, time 30-60 min
# Cell membrane [38] = assay: Induction of membrane disruption in Pseudomonas aeruginosa ATCC 27853 assessed as membrane blebbing at 2 to 4 times MIC incubated for 24 hrs by SEM analysis; format: cell membranes
Structure (SMILES),inhibition (INH) (Staphylococcus aureus [1]),half-life [2],Activity (Pseudomonas aeruginosa [3]),Activity (Staphylococcus aureus [4]),MIC (Staphylococcus aureus [5]),MIC (Staphylococcus aureus [6]),fractional inhibitory concentration index (FICI) (Staphylococcus aureus [7]),Activity (Pseudomonas aeruginosa [8]),Activity (Cell membrane [9]),Activity (Staphylococcus aureus [10]),fractional inhibitory concentration index (FICI) (Pseudomonas aeruginosa [11]),MIC (Staphylococcus aureus [12]),MIC (Staphylococcus aureus [13]),Activity (Staphylococcus aureus [15]),inhibition (INH) (Pseudomonas aeruginosa [16]),inhibition (INH) (Staphylococcus aureus [17]),MIC (Pseudomonas aeruginosa [18]),MIC (Staphylococcus aureus [19]),Activity (Pseudomonas aeruginosa [21]),fold change (FC) (Staphylococcus aureus [22]),further results
CC(C)C[C@@H](CN(CC(N)=O)S(=O)(=O)c1ccc(C(F)(F)F)cc1)NC(=O)[C@H](CCCCN)NC(=O)[C@H](CCCCN)NC(=O)[C@H](CC(C)C)NC(=O)[C@H](CC(C)C)NC(=O)[C@H](CCCCN)NC(=O)[C@H](CC(C)C)NC(=O)[C@@H](N)Cc1ccccc1 (H-FLKLLKK-X3),50%,2.96 h,Active,inactive,4 µg/mL,4 µg/mL,0.5,20 um,Dose-Dependent Effect,20 um,0.75,8 µg/mL,8 µg/mL,20 um,50%,50%,16 µg/mL,8 µg/mL,Active,2,fractional inhibitory concentration index (FICI) (Pseudomonas aeruginosa [14]): 0.75; Activity (Cell membrane [20]): Active; fractional inhibitory concentration index (FICI) (Pseudomonas aeruginosa [23]): 0.75
CC(C)C[C@H](N)CN(CC(=O)N[C@@H](CCCCN)C(=O)N[C@@H](CC(C)C)C(=O)N[C@@H](CC(C)C)C(=O)N[C@@H](CCCCN)C(=O)N[C@@H](CCCCN)C(=O)N[C@@H](CC(C)C)C(=O)N[C@@H](CC(C)C)C(N)=O)S(=O)(=O)c1ccc(C(F)(F)F)cc1 (X1-[X2]KLLKKLL-NH2),50%,9.22 h,Active,inactive,4 µg/mL,4 µg/mL,1,20 um,Dose-Dependent Effect,20 um,0.5,4 µg/mL,4 µg/mL,20 um,50%,50%,8 µg/mL,4 µg/mL,Active,2,fractional inhibitory concentration index (FICI) (Staphylococcus aureus [24]): 1; Activity [25]: Non-Toxic; Activity (Cell membrane [26]): Active; Activity (Staphylococcus aureus [27]): Active; Activity [28]: Non-Toxic; Activity (Cell membrane [29]): Active; Activity (Cell membrane [30]): Active; Activity (Cell membrane [31]): Dose-Dependent Effect; Activity (Cell membrane [32]): Dose-Dependent Effect; Activity [33]: Non-Toxic; log(activity) (Pseudomonas aeruginosa [34]): 4.51; Activity (Pseudomonas aeruginosa [35]): Active; Activity (Pseudomonas aeruginosa [36]): Active; Activity [37]: Non-Toxic; Activity (Cell membrane [38]): Active
